Test results from patent US20220323406A1, “METHODS AND COMPOSITIONS FOR DIFFERENTIATING STEM CELLS” (Massachusetts Institute of Technology, priority 2019, published 2022).

Columns and labels:
[1] = tested on: ENR+CD organoids (ISC to Paneth cell differentiation); assay: Primary screen: basal (non-stimulated) lysozyme secretion LYZ.NS, 2.5-D 384-well ENR+CD organoid differentiation; type: cell-based, mouse; conditions: primary screen; for Z.LYZ.NS: standard z score; for Dose.FC.LYZ.NS: FC vs plate median
Excerpt: (§1) High-throughput screening.

[2] = tested on: ENR+CD organoids (ISC to Paneth cell differentiation); assay: Primary screen: CCh-stimulated lysozyme secretion LYZ.S, 2.5-D 384-well ENR+CD organoid differentiation; type: cell-based, mouse; conditions: primary screen, FC vs plate median
Excerpt: as §1

[3] = tested on: ENR+CD organoids (ISC to Paneth cell differentiation); assay: Secondary (validation) screen: LYZ.NS basal lysozyme secretion, 2.5-D 384-well ENR+CD organoids; type: cell-based, mouse; conditions: for Dose.FC.LYZ.NS / Z.LYZ.NS / repSSMD.LYZ.NS: 6-day ENR+CD, vs ENR+CD+DMSO; for validated doses in secondary screen (SSMD above cutoff in both LYZ assays): LYZ.NS and LYZ.S
Description: (§2) Drugs were tested at a narrowed dose range around each treatment's identified optimal dose from the primary screen (4× below, 2× above and below).
as §1
(§3) Secondary lysozyme secretion assay screen. Confirmatory secondary screening with primary hits was performed using the above 384-well plate method. The screen was conducted with 4-plate replicates with a base media of ENR+CD. Media was supplemented with compound at day 0 and day 3 (n=8 well replicates per dose) at four different doses: two-fold above, two-fold below, and four-fold below the optimal final dose for each respective treatment. Additionally, each plate carried a large number of ENR+DMSO or ENR+CD+DMSO (vehicle) control wells (n=100 for ATP, and n=25 for LYZ.NS and LYZ.S) for robust normalization. ATP, non-stimulated lysozyme activity and CCh-stimulated lysozyme activity was again measured and the collected data was again processed in a custom R-script, per primary screen with slight modification. Values were log10 transformed, and a plate-wise FC was calculated for each well based on the median value of ENR+CD+DMSO (vehicle) control wells to normalize plate to plate variability.

[4] = tested on: ENR+CD organoids (ISC to Paneth cell differentiation); assay: Secondary (validation) screen: LYZ.S CCh-stimulated lysozyme secretion, 2.5-D 384-well ENR+CD organoids; type: cell-based, mouse; conditions: 6-day ENR+CD, vs ENR+CD+DMSO
Description: as §2, §1, §3

ENR+CD organoids [5] = assay: Secondary (validation) screen: ATP (CTG) assay, 2.5-D 384-well ENR+CD organoids; type: cell-based, mouse; conditions: 6-day ENR+CD, vs ENR+CD+DMSO
Description: as §2, §1, §3

ENR+CD organoids [6] = assay: Primary screen: ATP (CellTiter-Glo 3D, CTG) cell number/viability, 2.5-D 384-well ENR+CD organoids; conditions: primary screen; for Dose.FC.CTG: FC vs plate median; for Z.CTG: standard z score;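 for all read-outs here: compounds given at plating and again on day 3 over a 6-day differentiation from ENR+CV stem-cell-enriched precursors, ATP measured on day 6, plate median as control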

Cc1cn(-c2cc(NC(=O)c3ccc(C)c(Nc4nccc(-c5cccnc5)n4)c3)cc(C(F)(F)F)c2)cn1 [Nilotinib (AMN-107), Nilotinib, reference compound]
Z.LYZ.NS ([1]; dose 0.08 uM): 1.703
Z.LYZ.NS ([1]; dose 0.40 uM): 1.412
Z.LYZ.NS ([1]; dose 2.00 uM): 0.742
Z.LYZ.NS ([1]; dose 10.00 uM): −0.806
Dose.FC.LYZ.NS ([1]; dose 0.08 uM): 0.196 log2 fold change
Dose.FC.LYZ.NS ([1]; dose 0.40 uM): 0.162 log2 fold change
Dose.FC.LYZ.NS ([1]; dose 2.00 uM): 0.085 log2 fold change
Dose.FC.LYZ.NS ([1]; dose 10.00 uM): −0.093 log2 fold change
Dose.FC.LYZ.S ([2]; dose 0.08 uM): 0.235 log2 fold change
Dose.FC.LYZ.S ([2]; dose 0.40 uM): 0.293 log2 fold change
Dose.FC.LYZ.S ([2]; dose 2.00 uM): 0.033 log2 fold change
Dose.FC.LYZ.S ([2]; dose 10.00 uM): −0.197 log2 fold change
Dose.FC.LYZ.NS ([3]; 0.10 uM): 0.092 log2 fold change
Dose.FC.LYZ.NS ([3]; 0.20 uM): 0.161 log2 fold change
Dose.FC.LYZ.NS ([3]; 0.40 uM): 0.101 log2 fold change
Dose.FC.LYZ.NS ([3]; 0.80 uM): 0.165 log2 fold change
validated doses in secondary screen (SSMD above cutoff in both LYZ assays) [3]: multiple validated doses
biological potency compared with Bosutinib ([3]; LYZ.NS and LYZ.S mean fold change): more biologically potent
Dose.FC.LYZ.S ([4]; 0.10 uM): 0.044 log2 fold change
Dose.FC.LYZ.S ([4]; 0.20 uM): 0.117 log2 fold change
Dose.FC.LYZ.S ([4]; 0.40 uM): −0.007 log2 fold change
Dose.FC.LYZ.S ([4]; 0.80 uM): 0.143 log2 fold change
Dose.FC.CTG (ENR+CD organoids [5]; 0.10 uM): 0.092 log2 fold change
Dose.FC.CTG (ENR+CD organoids [5]; 0.20 uM): 0.122 log2 fold change
Dose.FC.CTG (ENR+CD organoids [5]; 0.40 uM): 0.141 log2 fold change
Dose.FC.CTG (ENR+CD organoids [5]; 0.80 uM): 0.233 log2 fold change
Dose.FC.CTG (ENR+CD organoids [6]; dose 0.08 uM): 0.322 log2 fold change
Dose.FC.CTG (ENR+CD organoids [6]; dose 0.40 uM): 0.348 log2 fold change
Dose.FC.CTG (ENR+CD organoids [6]; dose 2.00 uM): 0.242 log2 fold change
Dose.FC.CTG (ENR+CD organoids [6]; dose 10.00 uM): −0.012 log2 fold change

Cc1[nH]c(/C=C2\C(=O)Nc3ccc(S(=O)(=O)Cc4c(Cl)cccc4Cl)cc32)c(C)c1C(=O)N1CCC[C@@H]1CN1CCCC1 [PHA-665752]
Z.LYZ.NS ([1]; dose 0.08 uM): 1.586
Z.LYZ.NS ([1]; dose 0.40 uM): 2.368
Z.LYZ.NS ([1]; dose 2.00 uM): 1.591
Z.LYZ.NS ([1]; dose 10.00 uM): −0.931
Dose.FC.LYZ.NS ([1]; dose 0.08 uM): 0.182 log2 fold change
Dose.FC.LYZ.NS ([1]; dose 0.40 uM): 0.272 log2 fold change
Dose.FC.LYZ.NS ([1]; dose 2.00 uM): 0.183 log2 fold change
Dose.FC.LYZ.NS ([1]; dose 10.00 uM): −0.107 log2 fold change
Dose.FC.LYZ.S ([2]; dose 0.08 uM): 0.163 log2 fold change
Dose.FC.LYZ.S ([2]; dose 0.40 uM): 0.373 log2 fold change
Dose.FC.LYZ.S ([2]; dose 2.00 uM): 0.143 log2 fold change
Dose.FC.LYZ.S ([2]; dose 10.00 uM): −0.165 log2 fold change
Dose.FC.LYZ.NS ([3]; 0.10 uM): 0.210 log2 fold change
Z.LYZ.NS ([3]; 0.10 uM): 1.675
repSSMD.LYZ.NS ([3]; 0.10 uM): 2.400
Dose.FC.LYZ.NS ([3]; 0.20 uM): −0.027 log2 fold change
Z.LYZ.NS ([3]; 0.20 uM): −0.219
repSSMD.LYZ.NS ([3]; 0.20 uM): −0.350
Dose.FC.LYZ.NS ([3]; 0.40 uM): 0.099 log2 fold change
Z.LYZ.NS ([3]; 0.40 uM): 0.789
repSSMD.LYZ.NS ([3]; 0.40 uM): 0.942
Dose.FC.LYZ.NS ([3]; 0.80 uM): 0.090 log2 fold change
Z.LYZ.NS ([3]; 0.80 uM): 0.722
repSSMD.LYZ.NS ([3]; 0.80 uM): 1.142
validated doses in secondary screen (SSMD above cutoff in both LYZ assays) [3]: multiple validated doses
Dose.FC.LYZ.S ([4]; 0.10 uM): 0.133 log2 fold change
Z.LYZ.S ([4]; 0.10 uM): 1.019
repSSMD.LYZ.S ([4]; 0.10 uM): 1.586
Dose.FC.LYZ.S ([4]; 0.20 uM): −0.089 log2 fold change
Z.LYZ.S ([4]; 0.20 uM): −0.680
repSSMD.LYZ.S ([4]; 0.20 uM): −1.201
Dose.FC.LYZ.S ([4]; 0.40 uM): 0.076 log2 fold change
Z.LYZ.S ([4]; 0.40 uM): 0.585
repSSMD.LYZ.S ([4]; 0.40 uM): 0.906
Dose.FC.LYZ.S ([4]; 0.80 uM): 0.048 log2 fold change
Z.LYZ.S ([4]; 0.80 uM): 0.365
repSSMD.LYZ.S ([4]; 0.80 uM): 0.542
Dose.FC.CTG (ENR+CD organoids [5]; 0.10 uM): 0.100 log2 fold change
Z.CTG (ENR+CD organoids [5]; 0.10 uM): 0.898
repSSMD.CTG (ENR+CD organoids [5]; 0.10 uM): 0.755
Dose.FC.CTG (ENR+CD organoids [5]; 0.20 uM): −0.032 log2 fold change
Z.CTG (ENR+CD organoids [5]; 0.20 uM): −0.288
repSSMD.CTG (ENR+CD organoids [5]; 0.20 uM): −0.244
Dose.FC.CTG (ENR+CD organoids [5]; 0.40 uM): 0.303 log2 fold change
Z.CTG (ENR+CD organoids [5]; 0.40 uM): 2.735
repSSMD.CTG (ENR+CD organoids [5]; 0.40 uM): 1.415
Dose.FC.CTG (ENR+CD organoids [5]; 0.80 uM): 0.185 log2 fold change
Z.CTG (ENR+CD organoids [5]; 0.80 uM): 1.664
repSSMD.CTG (ENR+CD organoids [5]; 0.80 uM): 1.023
Z.CTG (ENR+CD organoids [6]; dose 0.08 uM): 1.126
Z.CTG (ENR+CD organoids [6]; dose 0.40 uM): 1.482
Z.CTG (ENR+CD organoids [6]; dose 2.00 uM): 1.339
Z.CTG (ENR+CD organoids [6]; dose 10.00 uM): 0.057
Dose.FC.CTG (ENR+CD organoids [6]; dose 0.08 uM): 0.471 log2 fold change
Dose.FC.CTG (ENR+CD organoids [6]; dose 0.40 uM): 0.620 log2 fold change
Dose.FC.CTG (ENR+CD organoids [6]; dose 2.00 uM): 0.561 log2 fold change
Dose.FC.CTG (ENR+CD organoids [6]; dose 10.00 uM): 0.024 log2 fold change
